Data on 22 molecules can be found in PubChem BioAssay (NCI).

Common to all, as to assay: NCI tumour cell line growth inhibition, 48 h
For test [1], the system named is HCT-116 colon.
For test [2], the system named is MOLT-4 leukemia.
In test [3] the test system is OVCAR-4 ovarian.
Test [4] concerns RPMI-8226 leukemia.
In test [5] the test system is SR leukemia.
Test [6] concerns MCF7 breast.
Test [7] deals with MDA-MB-231 breast.
The test system of test [8] is MDA-MB-435.
Test [9] deals with NCI/ADR-RES ovarian.
The test system of test [10] is PC-3 prostate.

Molecules are shown by their SMILES.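 Interpolation was linear, between the two tested concentrations surrounding the appropriate level; five concentrations were tested over 48 hours in 96-well plates. GI50 marks 50% less growth. At the TGI there is no net growth.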

For `CCCCCCCCCC(=O)CC(=O)c1c(O)cccc1O`, the TGI in test [1] is over 100 µM; in [2] it was over 100 µM; in test [3] it was over 100 µM; in test [4], 61.2 µM.
Regarding `COc1ccc2c(c1)CC[C@@H]1C2CC[C@]2(C)C(=O)NC(=O)CC12` (stereo not given in full), the TGI in test [1], in test [2] and in test [4] was over 100 µM in each case.
Take `COc1ccccc1/C=C\c1cc(OC)c(OC)c(OC)c1`: the TGI is over 100 µM in test [1], 98.6 µM in test [2], over 100 µM in [3] and 43.7 µM in test [4].
With `COC(=O)C1=C(C(=O)OC)C2(C(=O)OC)OC1(OC)C(C1(C(=O)OC)C(C(=O)OC)=C1C(=O)OC)=C2C(=O)OC` (stereo not given), the TGI in test [1], in test [2], in test [4] and in [5] was over 100 µM throughout.
In the case of `Cc1ccc(N2C(=O)/C(=C3\Sc4c(nc(C)[nH]c4=O)N3c3ccccc3)SC2=S)cc1`, the TGI in [1], in test [3] and in test [4] was over 100 µM each time.
As to `O=c1[nH]c(=S)[nH]c(O)c1/C=C1\C=CC=N1`, the TGI in test [1] was determined as 18.7 µM; in test [2], 44.3 µM; in test [3], 32 µM; in test [4] it was 23 µM; in [5] it was 18 µM.
As to `O=Cc1coc2ccccc2c1=O`, the TGI was 32 µM in test [1]; 45.7 µM in [6]; 48.4 µM in [7]; 47.9 µM in test [8]; 96.1 µM in test [2]; 34.9 µM in test [9]. In addition, the TGI in test [3] worked out at 43.8 µM; in test [10], 53.7 µM; in test [4] it was 52.1 µM.
With `CCC1(OC(C)=O)C(=O)OCc2c1cc1n(c2=O)Cc2cc3ccccc3nc2-1` (stereo not given), the TGI was over 37.5 µM in test [1], over 100 µM in test [3], over 100 µM in [4] and 11.9 µM in test [5].
With `COC1=C(OC)CCC(/C(C#N)=C/c2ccc(OC)c(OC)c2)=C1`, the TGI in [1], in test [2], in test [3], in test [4] and in [5] was over 100 µM each time.
For `Cc1ccc(Nc2ccc(Nc3ccc(C)cc3)c3c2C(=O)c2c(O)ccc(O)c2C3=O)cc1`, the TGI in test [1], in test [2], in test [3] and in test [4] was over 100 µM each time.
As for `COc1ccc(O)c2c1C(=O)CCCC2=O`, the TGI in [1], in [2], in [3] and in test [4] was over 100 µM in each case.
For the molecule `O=[As](O)(O)c1ccc(Cc2ccc([As](=O)(O)O)cc2)cc1`, the TGI was determined as 2.13 µM in test [1]; 1.19 µM in test [6]; 2.3 µM in [7]; 2.37 µM in test [8]; 4.26 µM in test [2]; 6.79 µM in [9]. Further, the TGI was found to be 7.47 µM in test [3], 1.76 µM in [10] and 0.984 µM in [4].
Regarding `Fc1ccccc1C1CC(C(c2ccccc2)c2ccccc2)=Nc2ccccc2S1` (stereo not given), the TGI is 11 µM in test [2], 32.9 µM in test [3] and 25 µM in [4].
Turning to `COc1cc2c(cc1C)n(O)c(C)c(C(=O)C/C(=N/NC(=O)C[N+](C)(C)C)C(=O)Nc1cccc(Cl)c1C)[n+]2=O`, the TGI in test [1], in [2], in [3], in test [4] and in test [5] was over 100 µM throughout.
Consider `O=c1cccccc1NCCCCNc1cccccc1=O`, for which the TGI in test [1], in [2], in test [3] and in [4] was over 100 µM in each case.
In the case of `Cc1cc(C)nc(NS(=O)(=O)c2ccc(NC(=O)c3cccc4cc5ccccc5nc34)cc2)n1`, the TGI in test [1] was 32.1 µM; in test [2], over 100 µM; in test [3], over 100 µM; in test [4], 85.7 µM.
For `COc1cc(C2C(C(=O)Nc3ccccc3)=C(C)NC(C)=C2C(=O)Nc2ccccc2)ccc1O`, the TGI in test [1] was over 100 µM; in test [2], over 100 µM; in [3], over 100 µM; in test [4] it was over 100 µM; in test [5], 93.3 µM.
Regarding `COc1ccc2c3c(c(OCCCN(C)C)nc2c1)-c1ccc(Cl)cc1C3=O`, the GI50 is 1.29 µM in test [1]; 1.27 µM in [6]; 4.26 µM in [7]; 5.53 µM in [8]; 0.833 µM in test [2]; 4.79 µM in test [9]. Besides, the GI50 was 2.83 µM in test [3], 4.72 µM in [10] and 15.4 µM in test [4]. For the same molecule, the TGI in test [1] is 3.52 µM; in test [6] it was 13 µM; in [7], 23.7 µM; in test [8] it was 18.7 µM; in [2] it was 38.2 µM; in [9] it was 26 µM. The TGI in [3] is 17.2 µM; in test [10], 19.4 µM; in [4] it was 56.1 µM.
For the molecule `COc1cccc(C2C(C(=O)Nc3cc(=O)n(C)c(=O)n3C)=C(C)NC(C)=C2C(=O)Nc2cc(=O)n(C)c(=O)n2C)c1O`, the TGI in test [2], in test [3] and in test [4] was over 100 µM each time.
Consider `CCOC(=O)C(C)(C)Oc1ccc2c(-c3ccc(Cl)cc3)cc(=O)oc2c1`, for which the TGI in test [1], in test [2], in test [3], in test [4] and in test [5] was over 100 µM throughout.
For `CCOC(=O)C12CC1(C(=O)OCC)C1CCC2C1` (stereo not given), the TGI in test [1], in test [2], in [3], in test [4] and in test [5] was over 100 µM each time.
On to `O=c1c([Se]c2coc3ccccc3c2=O)coc2ccccc12`, for which the TGI is 12.3 µM in test [1]; 48.2 µM in test [2]; 32.6 µM in [3]; 56.3 µM in test [4]; 22.4 µM in test [5].
